# Reference: US11673876B2, “Substituted aminobenzyl heteroaryl compounds as EGFR and/or PI3K inhibitors” (Mekanistic Therapeutics LLC, priority 2020, dated 2023)
# How the values were obtained:
# PI3Ka = PI3Ka (Homo sapiens (Human), UniProt P42336); test: Z'-LYTE / Adapta kinase assay, PI3Ka; type: biochemical; settings: for inhibition at 0.1 µM: read-out: PI3Ka % Inh. @ 100 nM
# Method in brief: (§1)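 Z'-LYTE FRET-peptide phosphorylation read as coumarin/fluorescein emission ratio (400 nm excitation); Adapta immunoassay detects ADP formation. 60-min kinase reaction, 60-min development, room temperature.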
# [1] = Metabolic stability in mouse liver microsomes; type: in vitro ADME
# Protocol: (§2) Working solution: 5 μL of compound and control stock solution (10 mM in dimethyl sulfoxide (DMSO)) were diluted with 495 μL of acetonitrile (ACN) (intermediate solution concentration: 100 μM, 99% ACN)
# (§3) NADPH Cofactor Preparation: NADPH powder: β-Nicotinamide adenine dinucleotide phosphate reduced form, tetrasodium salt; NADPH·4Na. The appropriate amount of NADPH powder was weighed and diluted into a 10 mM MgCl2 solution (working solution concentration: 10 unit/mL; final concentration in reaction system: 1 unit/mL)
# (§4) Liver Microsomes Preparation: The appropriate concentrations of microsome working solutions were prepared in 100 mM potassium phosphate buffer. Cold (4° C.) acetonitrile (ACN) containing 200 ng/mL tolbutamide and 200 ng/mL labetalol as internal standards (1S) was used as the stop solution
# (§5) Assay Procedure: Pre-warm empty ‘Incubation’ plates T60 and NCF60 for 10 minutes. Dilute liver microsomes to 0.56 mg/mL in 100 mM phosphate buffer. Transfer 445 μL microsome working solutions (0.56 mg/mL) into pre-warmed ‘Incubation’ plates T60 and NCF60, Then pre-incubate ‘Incubation’ plates T60 and NCF60 for 10 min at 37° C. with constant shaking. Transfer 54 μL liver microsomes to blank plate, then add 6 μL NAPDH cofactor to blank plate, and then add 180 μL quenching solution to blank plate. Add 5 μL compound working solution (100 μM) into ‘incubation’ plates (T60 and NCF60) containing microsomes and mix 3 times thoroughly.
# (§6) For the NCF60 plate, add 50 μL of buffer and mix 3 times thoroughly. Start timing; plate will be incubated at 37° C. for 60 min while shaking. In ‘Quenching’ plate T0, add 180 μL quenching solution and 6 μL NAPDH cofactor. Ensure the plate is chilled to prevent evaporation. For the T60 plate, mix 3 times thoroughly, and immediately remove 54 μL mixture for the 0-min time point to ‘Quenching’ plate. Then add 44 μL NAPDH cofactor to incubation plate (T60). Start timing; plate will be incubated at 37° C. for 60 min while shaking. At 5, 10, 20, 30, and 60 min, add 180 μL quenching solution to ‘Quenching’ plates, mix once, and serially transfer 60 μL sample from T60 plate per time point to ‘Quenching’ plates. For NCF60: mix once, and transfer 60 μL sample from the NCF60 incubation to ‘Quenching’ plate containing quenching solution at the 60-min time point. All sampling plates are shaken for 10 min, then centrifuged at 4000 rpm for 20 minutes at 4° C. Transfer 80 μL supernatant into 240 μL HPLC water, and mix by plate shaker for 10 min. Each bioanalysis plate was sealed and shaken for 10 minutes prior to LC-MS/MS analysis.
# (§7) The equation of first order kinetics was used to calculate T½ and CLint(mic) (μL/min/mg). Equation of first order kinetics: […]
# (§8) The biological stability of the compounds of the disclosure can be measured by determining its ½ life in the presence microsomes. Presented in Table 5, is the ½ life of selected compounds of the disclosure in the presence of human liver microsomes (HLM) or mouse liver microsomes (MLM) as described above. In Table 5, ½ life is presented as “++++” (value is greater than 60 minutes), “+++” (value is greater than 30 minutes and less than or equal to 60 minutes), “++” (value is greater than 15 minutes and less than or equal to 30 minutes) and “+” (value is 15 minutes or less).
# EGFR = EGFR (Homo sapiens (Human), UniProt P00533); test: Z'-LYTE / Adapta kinase assay, EGFR; type: biochemical; settings: for inhibition at 0.1 µM: read-out: EGFR % Inh. @ 100 nM
# Method in brief: as §1
# DNA-PK = DNA-PK (Homo sapiens (Human), UniProt P78527); test: Z'-LYTE / Adapta kinase assay, DNA-PK; type: biochemical; settings: for inhibition at 0.1 µM: read-out: DNA-PK % Inh. @ 100 nM
# Method in brief: as §1
# [2] = Metabolic stability in human liver microsomes; type: in vitro ADME
# Protocol: as §2, §3, §4, §5, §6, §7, §8
# PI3Ka, sequence (P42336 whole entry): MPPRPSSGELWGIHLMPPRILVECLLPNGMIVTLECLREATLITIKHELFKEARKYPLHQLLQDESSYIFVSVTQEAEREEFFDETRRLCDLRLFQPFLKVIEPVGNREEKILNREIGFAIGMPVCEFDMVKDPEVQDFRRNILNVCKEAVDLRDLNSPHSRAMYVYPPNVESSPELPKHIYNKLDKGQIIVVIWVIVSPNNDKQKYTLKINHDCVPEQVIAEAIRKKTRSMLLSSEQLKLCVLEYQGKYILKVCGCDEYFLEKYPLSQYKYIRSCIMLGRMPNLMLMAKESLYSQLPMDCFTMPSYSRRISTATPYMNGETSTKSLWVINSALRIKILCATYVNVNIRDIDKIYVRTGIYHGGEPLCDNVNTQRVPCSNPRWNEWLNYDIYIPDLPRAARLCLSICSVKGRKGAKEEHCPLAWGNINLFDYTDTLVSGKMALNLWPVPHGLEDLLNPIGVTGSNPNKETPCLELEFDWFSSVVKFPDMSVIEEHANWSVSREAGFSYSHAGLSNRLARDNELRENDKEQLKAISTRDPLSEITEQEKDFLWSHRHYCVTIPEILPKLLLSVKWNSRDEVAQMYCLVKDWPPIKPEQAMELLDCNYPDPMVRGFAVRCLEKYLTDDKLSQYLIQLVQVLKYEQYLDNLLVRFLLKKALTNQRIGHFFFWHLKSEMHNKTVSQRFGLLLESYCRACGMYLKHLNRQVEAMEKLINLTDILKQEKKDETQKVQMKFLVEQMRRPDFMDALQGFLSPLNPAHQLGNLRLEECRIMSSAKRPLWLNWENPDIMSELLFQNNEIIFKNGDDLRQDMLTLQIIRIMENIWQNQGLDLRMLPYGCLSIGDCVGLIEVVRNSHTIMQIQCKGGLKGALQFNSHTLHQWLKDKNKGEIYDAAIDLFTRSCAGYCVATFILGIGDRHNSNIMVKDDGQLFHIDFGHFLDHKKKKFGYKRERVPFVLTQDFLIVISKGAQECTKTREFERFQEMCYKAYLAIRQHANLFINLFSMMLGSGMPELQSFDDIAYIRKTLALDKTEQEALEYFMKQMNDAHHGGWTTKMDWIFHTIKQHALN
# PI3Ka, sequence (P27986 whole entry partner): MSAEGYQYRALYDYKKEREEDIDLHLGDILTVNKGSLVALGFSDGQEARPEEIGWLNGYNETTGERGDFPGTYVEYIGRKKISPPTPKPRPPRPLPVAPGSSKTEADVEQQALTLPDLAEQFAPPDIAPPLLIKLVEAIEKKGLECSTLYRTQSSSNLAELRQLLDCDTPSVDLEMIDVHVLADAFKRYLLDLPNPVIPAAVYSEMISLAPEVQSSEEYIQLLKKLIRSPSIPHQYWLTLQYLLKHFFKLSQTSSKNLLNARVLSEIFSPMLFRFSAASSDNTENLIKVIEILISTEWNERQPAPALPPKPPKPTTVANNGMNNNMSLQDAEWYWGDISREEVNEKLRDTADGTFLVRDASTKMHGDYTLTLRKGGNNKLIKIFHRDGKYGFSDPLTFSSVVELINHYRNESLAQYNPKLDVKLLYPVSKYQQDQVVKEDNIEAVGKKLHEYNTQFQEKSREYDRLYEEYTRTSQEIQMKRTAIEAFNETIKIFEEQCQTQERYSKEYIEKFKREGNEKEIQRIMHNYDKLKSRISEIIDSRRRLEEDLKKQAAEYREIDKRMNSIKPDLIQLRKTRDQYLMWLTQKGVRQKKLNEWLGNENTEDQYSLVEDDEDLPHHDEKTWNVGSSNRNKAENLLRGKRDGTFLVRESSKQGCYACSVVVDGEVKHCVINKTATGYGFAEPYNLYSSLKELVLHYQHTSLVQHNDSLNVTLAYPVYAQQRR
# EGFR, sequence (P00533 25-1210): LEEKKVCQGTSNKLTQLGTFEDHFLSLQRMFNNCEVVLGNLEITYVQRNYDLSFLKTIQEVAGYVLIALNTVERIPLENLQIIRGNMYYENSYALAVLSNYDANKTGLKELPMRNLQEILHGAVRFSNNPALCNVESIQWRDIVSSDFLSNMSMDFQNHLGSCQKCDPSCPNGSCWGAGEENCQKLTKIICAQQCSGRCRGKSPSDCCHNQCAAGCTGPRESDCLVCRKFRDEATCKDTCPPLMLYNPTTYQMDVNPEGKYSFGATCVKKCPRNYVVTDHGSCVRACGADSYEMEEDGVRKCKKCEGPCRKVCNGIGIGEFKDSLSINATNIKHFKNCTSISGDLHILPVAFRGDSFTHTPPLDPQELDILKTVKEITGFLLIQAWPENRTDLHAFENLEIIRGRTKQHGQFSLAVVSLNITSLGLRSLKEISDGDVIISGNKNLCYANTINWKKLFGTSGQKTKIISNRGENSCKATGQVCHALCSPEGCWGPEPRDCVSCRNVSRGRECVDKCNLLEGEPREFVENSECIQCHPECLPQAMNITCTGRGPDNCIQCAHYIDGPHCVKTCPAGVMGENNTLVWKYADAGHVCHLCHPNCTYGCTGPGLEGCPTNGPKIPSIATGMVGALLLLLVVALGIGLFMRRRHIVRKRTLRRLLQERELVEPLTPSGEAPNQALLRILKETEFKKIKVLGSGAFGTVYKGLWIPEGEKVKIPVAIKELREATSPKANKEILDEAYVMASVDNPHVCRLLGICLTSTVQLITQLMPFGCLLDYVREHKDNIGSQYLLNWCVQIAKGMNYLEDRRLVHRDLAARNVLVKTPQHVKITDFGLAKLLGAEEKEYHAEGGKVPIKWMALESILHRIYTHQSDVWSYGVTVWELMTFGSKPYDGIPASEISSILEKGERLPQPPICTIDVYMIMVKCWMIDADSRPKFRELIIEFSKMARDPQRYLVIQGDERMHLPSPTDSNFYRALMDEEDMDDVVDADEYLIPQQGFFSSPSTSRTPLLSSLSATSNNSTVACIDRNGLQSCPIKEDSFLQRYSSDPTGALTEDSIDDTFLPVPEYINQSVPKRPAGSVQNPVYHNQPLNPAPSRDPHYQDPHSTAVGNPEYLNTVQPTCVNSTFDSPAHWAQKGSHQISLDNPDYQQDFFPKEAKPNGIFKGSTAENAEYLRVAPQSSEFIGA
PI3Ka IC50 (nM) (PI3Ka),inhibition at 0.1 µM (PI3Ka) [%],½ life minutes (MLM) [1],IC50 (EGFR) [nM],inhibition at 0.1 µM (EGFR) [%],IC50 (DNA-PK) [nM],inhibition at 0.1 µM (DNA-PK) [%],½ life minutes (HLM) [2],Compound,IC50 (PI3Ka) [nM]
++++ (value is 2 nM or less),> 90,++++ (value is greater than 60 minutes),> 200,< 10,< 2,> 90,++++ (value is greater than 60 minutes),"C[C@H](Nc1c(C#N)cnc2ccc(-c3cnc(Cl)c(NS(C)(=O)=O)c3)cc12)c1ccccc1 [Compound 48S, N-(2-chloro-5-(3-cyano-4-((1S-phenylethyl)amino)quinolin-6-yl)pyridin-3-yl)methanesulfonamide]",
++++ (value is 2 nM or less),> 90,++++ (value is greater than 60 minutes),> 200,< 10,< 2,> 90,++++ (value is greater than 60 minutes),"C[C@H](Nc1ncnc2ccc(-c3cnc(Cl)c(NS(C)(=O)=O)c3)cc12)c1ccc(F)cc1 [Compound 111S, N-[2-chloro-5-[4-[[(1S)-1-(4-fluorophenyl)ethyl]amino]quinazolin-6-yl]-3-pyridyl]methanesulfonamide]",
+ (value is greater than 200 nM),10 to 80,++++ (value is greater than 60 minutes),2 to 20,80 to 90,> 200,10 to 80,++++ (value is greater than 60 minutes),"CC(Nc1ncnc2ccc(-c3cnc(N)nc3)cc12)c1ccc(F)cc1 (centres unmarked) [Compound 121, 6-(2-aminopyrimidin-5-yl)-N-(1-(4-fluorophenyl)ethyl)quinazolin-4-amine]",

Compound,PI3Ka IC50 (nM) (PI3Ka),inhibition at 0.1 µM (PI3Ka) [%],½ life minutes (MLM) [1],IC50 (EGFR) [nM],inhibition at 0.1 µM (EGFR) [%],IC50 (DNA-PK) [nM],inhibition at 0.1 µM (DNA-PK) [%],½ life minutes (HLM) [2],IC50 (PI3Ka) [nM]
"C[C@H](Nc1c(C#N)cnc2ccc(-c3cnc(Cl)c(NS(C)(=O)=O)c3)cc12)c1ccc(F)cc1 [Compound 97S, N-(2-chloro-5-(3-cyano-4-((1S-(4-fluorophenyl)ethyl)amino)quinolin-6-yl)pyridin-3-yl)methanesulfonamide]",,> 90,++++ (value is greater than 60 minutes),> 200,< 10,< 2,> 90,++++ (value is greater than 60 minutes),< 2
